These results are taken from PubChem BioAssay (NCI).

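Exposure lasted 48 hours, with cells grown in 96-well plates and compounds tested at five concentrations. TGI is the concentration that stops growth completely.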

Test systems include M14 melanoma; IGROV1 ovarian; SF-295 CNS; MALME-3M melanoma; SF-268 CNS; OVCAR-4 ovarian; HOP-62 NSCLC; HOP-92 NSCLC; LOX IMVI melanoma.
Common to all, as to experiment: DTP human tumour cell line panel, 48 h

One may read the TGI as the concentration giving total growth inhibition. As to `CNS(=O)(=O)NN(C)S(=O)(=O)c1ccc(C)cc1`, the TGI in the test with M14 melanoma, in the test on IGROV1 ovarian, in the test with SF-295 CNS, in the test with MALME-3M melanoma, with SF-268 CNS and with OVCAR-4 ovarian was more than 100 µM throughout. Besides, the TGI in the test on HOP-62 NSCLC and in the test on HOP-92 NSCLC was more than 100 µM each time.

Consider `Clc1ccc(C2=NN(c3ccccc3)C3c4cc(Br)ccc4OCC23)cc1` (configuration not stated), for which the concentration for total growth inhibition (TGI) with IGROV1 ovarian, in the test on SF-295 CNS, with MALME-3M melanoma, in the test on LOX IMVI melanoma, in the test with SF-268 CNS and in the test on HOP-62 NSCLC was more than 100 µM throughout. Further, in the test with HOP-92 NSCLC, the TGI was more than 100 µM.

In the case of `COC(=O)C12C3C=CC(O3)C1C1C=CC2O1` (configuration not stated), the TGI in the test with M14 melanoma, in the test with IGROV1 ovarian, with SF-295 CNS, in the test on MALME-3M melanoma, with SF-268 CNS and in the test with HOP-92 NSCLC was more than 100 µM each time.

As to `O=c1[nH]cnc2c1nnn2C1C=C(CO)C(O)C1O` (configuration not stated), the TGI was more than 100 µM in the test with M14 melanoma; more than 100 µM in the test on IGROV1 ovarian; more than 100 µM in the test with SF-295 CNS; 81.5 µM in the test on LOX IMVI melanoma; more than 100 µM in the test on SF-268 CNS; more than 100 µM in the test on OVCAR-4 ovarian. Besides, the TGI in the test on HOP-62 NSCLC and in the test with HOP-92 NSCLC was more than 100 µM each time.

Regarding `COc1cc(C2c3cc4c(cc3[C@@H](OCCN)[C@H]3COC(=O)C23)OCO4)cc(OC)c1O` (some centres not stated), the total growth inhibition concentration (TGI) in the test on M14 melanoma was determined as 3.34 µM; in the test on IGROV1 ovarian it was 4.55 µM; with SF-295 CNS, 0.543 µM; in the test on MALME-3M melanoma, 1.59 µM; in the test with LOX IMVI melanoma it was 0.395 µM; with SF-268 CNS it was 1.48 µM. The TGI with OVCAR-4 ovarian is 5.79 µM; with HOP-62 NSCLC it was 0.34 µM; in the test with HOP-92 NSCLC, 1.43 µM.

Consider `COC(=O)C1(c2ccc(OC)cc2)NC(c2ccccc2)C2C(=O)N(c3ccc(OC)cc3)C(=O)C21` (configuration not stated), for which the TGI in the test on M14 melanoma, with IGROV1 ovarian, in the test on SF-295 CNS, with MALME-3M melanoma, in the test on LOX IMVI melanoma and with SF-268 CNS was more than 100 µM in each case. The TGI with OVCAR-4 ovarian is more than 100 µM.

For the molecule `Cc1ccc(C)c(NC(=O)CCC(=O)CC(=O)C(C)(C)C)c1`, the total growth inhibition concentration (TGI) with M14 melanoma, in the test with IGROV1 ovarian, with MALME-3M melanoma, with LOX IMVI melanoma, in the test on SF-268 CNS and in the test with OVCAR-4 ovarian was more than 100 µM in each case. Besides, the concentration for total growth inhibition (TGI) in the test with HOP-62 NSCLC and in the test on HOP-92 NSCLC was more than 100 µM throughout.

Consider `Nc1cc2c3c(cccc3c1)C(=O)N(CCN1CCN(CCN3C(=O)c4cccc5cc(N)cc(c45)C3=O)CC1)C2=O`, for which the TGI with M14 melanoma, in the test on IGROV1 ovarian, with SF-295 CNS, in the test with MALME-3M melanoma, in the test on SF-268 CNS and with OVCAR-4 ovarian was more than 100 µM each time. The TGI with HOP-62 NSCLC and with HOP-92 NSCLC was more than 100 µM in each case.

Regarding `COC1C2c3ccccc3C(C#N)(Cc3ccc4c(c32)OCO4)N1C(=O)c1ccccc1` (configuration not stated), the concentration for total growth inhibition (TGI) with M14 melanoma, in the test on IGROV1 ovarian, in the test on SF-295 CNS, in the test with MALME-3M melanoma, with LOX IMVI melanoma and in the test with SF-268 CNS was more than 100 µM in each case. For the same molecule, the TGI in the test with HOP-62 NSCLC and with HOP-92 NSCLC was more than 100 µM in each case.

With `Cn1c(=O)c2c(nc3n2C(CCl)CO3)n(C)c1=O` (configuration not stated), the total growth inhibition concentration (TGI) in the test with M14 melanoma, in the test with IGROV1 ovarian, in the test with SF-295 CNS, with MALME-3M melanoma, in the test on SF-268 CNS and in the test on OVCAR-4 ovarian was more than 100 µM each time. The TGI with HOP-62 NSCLC and in the test with HOP-92 NSCLC was more than 100 µM throughout.

For the molecule `C=C1C(=O)C23C(O)C1CCC2C12CO[C@]3(O)[C@@H](O)C1C(C)(C)CCC2O` (some centres not stated), the TGI in the test with M14 melanoma is 24.1 µM; with IGROV1 ovarian, 20.3 µM; in the test with SF-295 CNS, 30.6 µM; with MALME-3M melanoma, 17.5 µM; in the test on LOX IMVI melanoma, 31.4 µM; in the test with SF-268 CNS, 28.8 µM. Moreover, the TGI is 40.5 µM in the test with HOP-62 NSCLC and 8.99 µM in the test on HOP-92 NSCLC.

In the case of `CCCCCNC(=O)C1C(=O)N(CCCCC)C(=O)/C1=N\N` (configuration not stated), the concentration for total growth inhibition (TGI) with M14 melanoma, with IGROV1 ovarian, with SF-295 CNS, with MALME-3M melanoma, in the test with SF-268 CNS and with OVCAR-4 ovarian was more than 100 µM in each case. Further, the TGI is more than 100 µM with HOP-62 NSCLC and 95.4 µM with HOP-92 NSCLC.

With `CC1(C)CC(C2CC(C)(C)CC(C)(C)[C@H]2O)[C@@H](O)C(C)(C)C1` (some centres not stated), the TGI in the test on M14 melanoma, in the test on IGROV1 ovarian, in the test on SF-295 CNS, with MALME-3M melanoma, in the test with LOX IMVI melanoma and in the test with SF-268 CNS was more than 100 µM each time.

As to `O=C1NCC2=C1CCC1c3ccccc3CCN21` (configuration not stated), the total growth inhibition concentration (TGI) in the test with IGROV1 ovarian, in the test with SF-295 CNS, in the test with MALME-3M melanoma, in the test with LOX IMVI melanoma, in the test on SF-268 CNS and with HOP-92 NSCLC was more than 100 µM in each case.

As for `Cc1ccc(S(=O)(=O)OC(C=O)C(O)C(O)COC(c2ccccc2)(c2ccccc2)c2ccccc2)cc1` (configuration not stated), the total growth inhibition concentration (TGI) turned out to be 30.1 µM in the test with M14 melanoma; 29.5 µM in the test on IGROV1 ovarian; 24.8 µM with SF-295 CNS; 33.7 µM in the test on MALME-3M melanoma; 35.2 µM with LOX IMVI melanoma; 35.2 µM with SF-268 CNS. Also, the values for the TGI in the test with OVCAR-4 ovarian and with HOP-62 NSCLC were 32.8 µM and 30.8 µM, respectively.

In the case of `COC(=O)CC(CC(=O)C(=O)OC)C(=O)OC` (configuration not stated), the TGI in the test with M14 melanoma, with IGROV1 ovarian, with SF-295 CNS, with MALME-3M melanoma, in the test with LOX IMVI melanoma and in the test on HOP-62 NSCLC was more than 100 µM each time. Besides, the TGI in the test on HOP-92 NSCLC was more than 100 µM.

As to `O=C1/C(=C/c2ccccc2Cl)COc2ccccc21`, the TGI came out at 35.6 µM in the test on IGROV1 ovarian; 37.6 µM in the test on SF-295 CNS; 29.7 µM in the test with MALME-3M melanoma; 35.8 µM in the test with LOX IMVI melanoma; 34.1 µM with SF-268 CNS; 35 µM in the test with HOP-62 NSCLC. Moreover, the concentration for total growth inhibition (TGI) with HOP-92 NSCLC was determined as 29.4 µM.
